Values after ≈ are worked out from the molar mass of the structure shown. Where two headings read alike, the source gives them in different places.
Legend:
Format in all cases: physicochemical
[1] = Solid storage stability test; settings: for Original morphology / Original purity: original solid before storage; for chemical and physical stability after storage (summary): solid/25° C./60% RH/open/1 week and/or solid/60° C./closed container/1 week
Protocol: Each amorphous salt solid was weighed (two 2 mg samples were weighed for purity testing after solid storage stability study, and one 10 mg sample was weighed for XRPD testing after solid storage stability study) and placed in a glass vial. In a 25° C./60% RH solid storage stability test, the amorphous salt solid was placed in a 25° C./60% RH constant temperature and humidity chamber, and placed in the dark for 1 week (i.e. “solid/25° C./60% RH/open/1 week”), and in a 60° C. solid storage stability test, the amorphous salt solid was sealed in an oven at 60° C. and heated for 1 week in the dark (i.e. “solid/60° C./closed container/l week”). Then the sample was taken out for purity testing, crystal form detection and appearance observation, respectively.

[2] = Solid solubility test (2 h and 24 h); settings: for solubility at 2 h: 37 °C, thermodynamic from solid; for XRPD measured at 2 h: state of sample / solid fraction
Protocol: samples were weighed for each amorphous salt solid (equivalent to 20 mg of free base), and 10 mL of the following solvents were respectively added: 0.1N HCl solution (pH 1.0), 50 mM phosphate buffer (pH 4.5), FeSSIF-V1 (pH 5.0), FaSSIF-V1 (pH 6.5) and SGF (pH 2.0), […] The suspension was then centrifuged at 37° C., the supernatant was measured for solubility by HPLC, and the solid fraction was measured for XRPD. The target solubility was at least 2 mg (based on free base)/mL.

[3] = Chemical and physical stability of the salts at the end of the preparation
From the text: It is crucial for drug development whether the salts obtained as above have chemical and physical stability at the end of the preparation. The chemical and physical stability of the salts at the end of the preparation includes: […]

[4] = Test BS1: solid/25° C./60% RH/open/1 week
[5] = listed as amorphous 2 eq. besylate salt
[6] = solid/60° C./closed container/1 week (Test BS1)
[7] = FaSSIF-V1 (pH 6.5) (Test ES4, partly printed ES1)
[8] = FaSSIF-V1 (pH 6.5) (Test ES4, partly printed ES1), 37° C., based on free base
[9] = Test ES1: 0.1N HCl solution (pH 1.0)
[10] = Test ES1: 0.1N HCl solution (pH 1.0), 37° C., based on free base
[11] = Test ES2: 50 mM phosphate buffer (pH 4.5)
[12] = Test ES2: 50 mM phosphate buffer (pH 4.5), 37° C., based on free base
[13] = Test ES3: FeSSIF-V1 (pH 5.0), 37° C., based on free base
[14] = Test ES5: SGF (pH 2.0), 37° C., based on free base
[15] = listed as amorphous 1 eq. esylate salt

| Compound | Purity [1, 4] | Original morphology [1] | Original purity [1] | Purity [1, 6] | pH measured at 2 h [2, 7] | Solubility measured at 2 h [2, 8] | XRPD measured at 2 h [2, 7] | pH measured at 2 h [2, 9] | Solubility measured at 2 h [2, 10] | pH measured at 2 h [2, 11] | Solubility measured at 2 h [2, 12] | XRPD measured at 2 h [2, 11] | pH measured at 2 h ([2]; Test ES3: FeSSIF-V1 (pH 5.0)) | Solubility measured at 2 h [2, 13] | XRPD measured at 2 h ([2]; Test ES3: FeSSIF-V1 (pH 5.0)) | pH measured at 2 h ([2]; Test ES5: SGF (pH 2.0)) | Solubility measured at 2 h [2, 14] | XRPD measured at 2 h ([2]; Test ES5: SGF (pH 2.0)) | also measured |
| --- | --- | --- | --- | --- | --- | --- | --- | --- | --- | --- | --- | --- | --- | --- | --- | --- | --- | --- | --- |
| C=CC(=O)Nc1cc(Nc2ncnc(-c3cn(C)c4ccccc34)n2)c(OC)cc1N(C)CCN(C)C [Example 7] | 99.6% | amorphous | 99.6% | 99.4% | (6.1) | >2 mg/mL | clear solution | (0.8) | 1.8 mg/mL (≈ 3.6 mM) | (4.2) | >2 mg/mL | clear solution | L(4.8) | >2 mg/mL | clear solution | (1.7) | >2 mg/mL | clear solution | chemical and physical stability after storage (summary) ([1]; listed as 2 eq. besylate salt): physically unstable; chemical and physical stability after storage (summary) [1, 5]: physically unstable; physical and chemical stability under storage (in words) ([1]; solid/25° C./60% RH/open/1 week, listed as amorphous 2 eq. besylate salt): slight color change and showed significant hygroscopicity (caking and fusion to a glassy state); physical and chemical stability under storage (in words) ([1]; solid/60° C./closed container/1 week, listed as amorphous 2 eq. besylate salt): good physical and chemical stability; solubility at 2 h ([2]; 0.1N HCl solution, pH 1, simulated gastric fluid, Test ES1: 0.1N HCl solution (pH 1.0), 37° C., based on free base, read-out: Solubility measured at 2 h): < 2000 µg/mL; solubility at 2 h ([2]; not achieved in some solvents / greater in various solvents, read-out: solubility in solvents that mimic physiological conditions): < 2000 µg/mL; chemical and physical stability at the end of the preparation ([3]; listed as 2 eq. besylate salt): chemically and physically stable; chemical and physical stability at the end of the preparation [3, 5]: chemically and physically stable |
| C=CC(=O)Nc1cc(Nc2ncnc(-c3cn(C)c4ccccc34)n2)c(OC)cc1N(C)CCN(C)C [Example 8] | 99.9% | amorphous | 99.8% | 99.8% | (6.4) | >2 mg/mL | clear solution | (0.8) | >2 mg/mL | (4.4) | >2 mg/mL | clear solution | (4.8) | >2 mg/mL | clear solution | (1.9) | >2 mg/mL | clear solution | chemical and physical stability after storage (summary) ([1]; listed as 1 eq. esylate salt): physically unstable; chemical and physical stability after storage (summary) [1, 15]: physically unstable; physical and chemical stability under storage (in words) ([1]; solid/25° C./60% RH/open/1 week, listed as amorphous 1 eq. esylate salt): significant hygroscopicity (caking and fusion to a glassy state); physical and chemical stability under storage (in words) ([1]; solid/60° C./closed container/1 week, listed as amorphous 1 eq. esylate salt): good physical and chemical stability; XRPD measured at 2 h [2, 9]: clear solution; chemical and physical stability at the end of the preparation ([3]; listed as 1 eq. esylate salt): chemically and physically stable; chemical and physical stability at the end of the preparation [3, 15]: chemically and physically stable |

Source: patent US20230234941A1, “Salts of Compound and Pharmaceutical Compositions Containing the Same” (Shenzhen Forward Pharmaceuticals Co., Limited., priority 2020, published 2023)
